From patent US10570108B2, “Substituted benzofuran compounds for the treatment of hepatitis C” (BRISTOL-MYERS SQUIBB COMPANY, priority 2015, dated 2020)

tested on: HCV replicon; experiment: HCV replicon luciferase assay; assay type: cell-based; settings: Hepatitis C virus, Huh-7, 72 h
Protocol: Cell lines. The cell lines used to evaluate compounds consist of a human hepatocyte derived cell line (Huh-7) that constitutively expresses a genotype 1b (Con-1) HCV replicon or a genotype 1b (Con-1) HCV replicon with an asparagine replacing the cysteine at amino acid 316, or a genotype 2a (JFH-1) replicon, containing a Renilla luciferase reporter gene. These cells were maintained in Dulbecco's modified Eagle medium (DMEM) containing 10% FBS, 100 U/mL penicillin/streptomycin and 1.0 mg/mL G418.
HCV replicon luciferase assay. To evaluate compound efficacy, titrated compounds were transferred to sterile 384-well tissue culture treated plates, and the plates were seeded with HCV replicon cells (50 μL at a density of 2.4×10^3 cells/well) in DMEM containing 4% FBS (final DMSO concentration at 0.5%). After 3 days incubation at 37° C., cells were analyzed for Renilla Luciferase activity using the EnduRen substrate (Promega cat #E6485) according to the manufacturer's directions. Briefly, the EnduRen substrate was diluted in DMEM and then added to the plates to a final concentration of 7.5 μM. The plates were incubated for at least 1 h at 37° C. then read on a Viewlux Imager (PerkinElmer) using a luminescence program. The 50% effective concentration (EC50) was calculated using the four-parameter logistic formula noted above.

Compared with `CCN(CC)c1cc2oc(-c3ccc(F)cc3)c(C(=O)NC)c2cc1-c1cccc(C(=O)N[C@H]2C(O)O[C@H](CO)[C@@H](O)[C@@H]2O)c1` (stereo partly shown) [Compound 1001], `CCN(CC)c1cc2oc(-c3ccc(F)cc3)c(C(=O)NC)c2cc1-c1cccc(C(=O)NC2CC(O)C2)c1` (stereo not shown) [Compound 1005] is lower in EC50: 2820 nM for the first, under 100 nM for the second.

`CCN(CC)c1cc2oc(-c3ccc(F)cc3)c(C(=O)NC)c2cc1-c1cccc(C(=O)NCCC2(O)CCCC2)c1` [Compound 1002] and `CCN(CC)c1cc2oc(-c3ccc(F)cc3)c(C(=O)NC)c2cc1-c1cccc(C(=O)NCC2(COC)CC2)c1` [Compound 1020] cannot be ordered by EC50: under 100 nM for the first, under 100 nM for the second.

`CCN(CC)c1cc2oc(-c3ccc(F)cc3)c(C(=O)NC)c2cc1-c1cccc(C(=O)NC[C@H]2CCCC[C@H]2O)c1` [Compound 1003] and `CCN(CC)c1cc2oc(-c3ccc(F)cc3)c(C(=O)NC)c2cc1-c1cccc(C(=O)NC2CCC(O)C2)c1` (stereo not shown) [Compound 1006] cannot be ordered by EC50: under 100 nM for the first, 44.5 nM for the second.

`CCOC(=O)[C@@H]1CCCC[C@@H]1NC(=O)c1cccc(-c2cc3c(C(=O)NC)c(-c4ccc(F)cc4)oc3cc2N(CC)CC)c1` [Compound 1004] and `CCOC(=O)[C@H]1CCCC[C@@H]1NC(=O)c1cccc(-c2cc3c(C(=O)NC)c(-c4ccc(F)cc4)oc3cc2N(CC)CC)c1` [Compound 1007] cannot be ordered by EC50: under 100 nM for the first, under 100 nM for the second.

Compared with `CCOC(=O)CC1(NC(=O)c2cccc(-c3cc4c(C(=O)NC)c(-c5ccc(F)cc5)oc4cc3N(CC)CC)c2)CCCCC1` [Compound 1008], `CCN(CC)c1cc2oc(-c3ccc(F)cc3)c(C(=O)NC)c2cc1-c1cccc(C(=O)NCC(=N)N)c1` [Compound 1017] is higher in EC50: under 100 nM for the first, 100 to 1000 nM for the second. The first is the more potent here.

First: CCN(CC)c1cc2oc(-c3ccc(F)cc3)c(C(=O)NC)c2cc1-c1cccc(C(=O)N[C@H]2CC=CC[C@H]2CO)c1 [Compound 1009]
Second: CCN(CC)c1cc2oc(-c3ccc(F)cc3)c(C(=O)NC)c2cc1-c1cccc(C(=O)N[C@H]2CCC[C@H]2C(=O)O)c1 [Compound 1041]
The EC50 of the first is lower: under 100 nM for the first, 135 nM for the second. The first is the more potent here.

`CCN(CC)c1cc2oc(-c3ccc(F)cc3)c(C(=O)NC)c2cc1-c1cccc(C(=O)NCc2ccccc2C(=O)OC)c1` [Compound 1010] and `CCN(CC)c1cc2oc(-c3ccc(F)cc3)c(C(=O)NC)c2cc1-c1cccc(C(=O)NCCOc2ccccc2)c1` [Compound 1023] cannot be ordered by EC50: under 100 nM for the first, under 100 nM for the second.

`CCN(CC)c1cc2oc(-c3ccc(F)cc3)c(C(=O)NC)c2cc1-c1cccc(C(=O)NCC2(Cn3cccn3)CC2)c1` [Compound 1011] and `CCN(CC)c1cc2oc(-c3ccc(F)cc3)c(C(=O)NC)c2cc1-c1cccc(C(=O)NCC2(C#N)CC2)c1` [Compound 1019] cannot be ordered by EC50: 26.1 nM for the first, under 100 nM for the second.

`CCN(CC)c1cc2oc(-c3ccc(F)cc3)c(C(=O)NC)c2cc1-c1cccc(C(=O)NCCCn2ccnc2)c1` [Compound 1012] and `CCN(CC)c1cc2oc(-c3ccc(F)cc3)c(C(=O)NC)c2cc1-c1cccc(C(=O)NCCCn2cncn2)c1` [Compound 1013] cannot be ordered by EC50: under 100 nM for the first, under 100 nM for the second.

`CCN(CC)c1cc2oc(-c3ccc(F)cc3)c(C(=O)NC)c2cc1-c1cccc(C(=O)NCCN2CCNC2=O)c1` [Compound 1014] and `CCN(CC)c1cc2oc(-c3ccc(F)cc3)c(C(=O)NC)c2cc1-c1cccc(C(=O)NC2CCNC2=O)c1` (stereo not shown) [Compound 1026] cannot be ordered by EC50: under 100 nM for the first, 11.1 nM for the second.

First: CCOP(=O)(CCCNC(=O)c1cccc(-c2cc3c(C(=O)NC)c(-c4ccc(F)cc4)oc3cc2N(CC)CC)c1)OCC [Compound 1015]
Second: CCN(CC)c1cc2oc(-c3ccc(F)cc3)c(C(=O)NC)c2cc1-c1cccc(C(=O)NCCCS(=O)(=O)O)c1 [Compound 1039]
The EC50 of the first is lower: under 100 nM for the first, over 1000 nM for the second.

Going from `CCN(CC)c1cc2oc(-c3ccc(F)cc3)c(C(=O)NC)c2cc1-c1cccc(C(=O)NCCNS(=O)(=O)c2ccc(C)cc2)c1` [Compound 1016] to `CCN(CC)c1cc2oc(-c3ccc(F)cc3)c(C(=O)NC)c2cc1-c1cccc(C(=O)NCS(=O)(=O)O)c1` [Compound 1040], the EC50 rises from 32.5 nM to over 1000 nM.

`CCN(CC)c1cc2oc(-c3ccc(F)cc3)c(C(=O)NC)c2cc1-c1cccc(C(=O)NCC2(c3ccccc3)CC2)c1` [Compound 1018] and `CCN(CC)c1cc2oc(-c3ccc(F)cc3)c(C(=O)NC)c2cc1-c1cccc(C(=O)NCC2(COc3ccccc3)CC2)c1` [Compound 1021] cannot be ordered by EC50: 100 to 1000 nM for the first, 172 nM for the second.

`CCN(CC)c1cc2oc(-c3ccc(F)cc3)c(C(=O)NC)c2cc1-c1cccc(C(=O)NCCCOc2ccccc2)c1` [Compound 1022] and `CCN(CC)c1cc2oc(-c3ccc(F)cc3)c(C(=O)NC)c2cc1-c1cccc(C(=O)NCCOCc2ccccc2)c1` [Compound 1025] cannot be ordered by EC50: under 100 nM for the first, under 100 nM for the second.

First: CC[C@H](COCc1ccccc1)NC(=O)c1cccc(-c2cc3c(C(=O)NC)c(-c4ccc(F)cc4)oc3cc2N(CC)CC)c1 [Compound 1024]
Second: CCN(CC)c1cc2oc(-c3ccc(F)cc3)c(C(=O)NC)c2cc1-c1cccc(C(=O)N[C@H](CC(=O)O)CC(C)C)c1 [Compound 1043]
The EC50 of the first is higher: 100 to 1000 nM for the first, under 100 nM for the second.

`CCN(CC)c1cc2oc(-c3ccc(F)cc3)c(C(=O)NC)c2cc1-c1cccc(C(=O)NC2CNC(=O)C2)c1` (stereo not shown) [Compound 1027] and `CCN(CC)c1cc2oc(-c3ccc(F)cc3)c(C(=O)NC)c2cc1-c1cccc(C(=O)NC2CCOC2)c1` (stereo not shown) [Compound 1029] cannot be ordered by EC50: under 100 nM for the first, under 100 nM for the second.

`CCN(CC)c1cc2oc(-c3ccc(F)cc3)c(C(=O)NC)c2cc1-c1cccc(C(=O)NC2CCOCC2)c1` [Compound 1028] and `CCN(CC)c1cc2oc(-c3ccc(F)cc3)c(C(=O)NC)c2cc1-c1cccc(C(=O)N[C@@H]2C3CCC(C3)[C@@H]2CO)c1` (stereo partly shown) [Compound 1030] cannot be ordered by EC50: under 100 nM for the first, under 100 nM for the second.

Compared with `CCN(CC)c1cc2oc(-c3ccc(F)cc3)c(C(=O)NC)c2cc1-c1cccc(C(=O)N[C@@]2(C)[C@@H](C(=O)OC)C[C@H]3C[C@@H]2C3(C)C)c1` [Compound 1031], `CCN(CC)c1cc2oc(-c3ccc(F)cc3)c(C(=O)NC)c2cc1-c1cccc(C(=O)N[C@]2(C)[C@H](C(=O)OC)C[C@@H]3C[C@H]2C3(C)C)c1` [Compound 1032] is lower in EC50: 116 nM for the first, under 100 nM for the second.

`CCN(CC)c1cc2oc(-c3ccc(F)cc3)c(C(=O)NC)c2cc1-c1cccc(C(=O)NC(C)[C@@]23C[C@@H]4C[C@@H](C[C@@](O)(C4)C2)C3)c1` (stereo partly shown) [Compound 1033] and `CCN(CC)c1cc2oc(-c3ccc(F)cc3)c(C(=O)NC)c2cc1-c1cccc(C(=O)N[C@@]23C[C@@H]4C[C@@H](C[C@@](O)(C4)C2)C3)c1` [Compound 1034] cannot be ordered by EC50: under 100 nM for the first, under 100 nM for the second.

`CCN(CC)c1cc2oc(-c3ccc(F)cc3)c(C(=O)NC)c2cc1-c1cccc(C(=O)NC23CC4(C)CC(C)(CC(O)(C4)C2)C3)c1` [Compound 1035] and `CCN(CC)c1cc2oc(-c3ccc(F)cc3)c(C(=O)NC)c2cc1-c1cccc(C(=O)NCC2(C)COC2)c1` [Compound 1036] cannot be ordered by EC50: under 100 nM for the first, 26.6 nM for the second.

Compared with `CCN(CC)c1cc2oc(-c3ccc(F)cc3)c(C(=O)NC)c2cc1-c1cccc(C(=O)NCC2(CO)COC2)c1` [Compound 1037], `CCN(CC)c1cc2oc(-c3ccc(F)cc3)c(C(=O)NC)c2cc1-c1cccc(C(=O)N[C@H]2C3CCC(C3)[C@H]2C(=O)O)c1` (stereo partly shown) [Compound 1038] is higher in EC50: under 100 nM for the first, 100 to 1000 nM for the second.

Work on `CCN(CC)c1cc2oc(-c3ccc(F)cc3)c(C(=O)NC)c2cc1-c1cccc(C(=O)N[C@H]2CCC[C@H]2C(=O)N[C@H]2CCC[C@H]2C(=O)O)c1` [Compound 1042] yielded an EC50 of 100 to 1000 nM.
